# Measurements reported in patent US20200147039A1, “COMPOUNDS USEFUL IN INHIBITING HUMAN TREFOIL FACTOR 3” (NATIONAL UNIVERSITY OF SINGAPORE, priority 2017, published 2020).
# Test system: MCF-7
# Experiment: AlamarBlue cell viability assay, MCF7
# Type: cell-based, human
# Details: Homo sapiens, MCF7, MCF-7, AlamarBlue cell viability (Table 8)
# Description: (A) Inhibitory concentration 50% (IC50) values for compound 43 in the MC cell lines are tabulated, using an AlamarBlue™ cell viability assay as previously described in Pandey V et al., Breast Cancer Res. 2014; 16(5):429. (B) Measured dose-dependent manner effect of compound 43 on the viability of MC cells (left-side, TFF3-high and right, TFF3-low) using AlamarBlue™ viability assay as previously described (ibid). (C) Apoptotic cell death of mammary carcinoma cell lines measured after treatment with 10 μM compound 43 using flow cytometry analysis at 24 hour as described previously in Keerthy H K et al., PloS one. 2014; 9(9):e107118. Annexin V-FITC staining is indicated on the X-axis and PI staining on the Y-axis. […] Acquisition of Annexin V and PI data were represented as percentage (%) in each quadrant. Note: CM, conditioned media; MCF10A and MCF12A, non-transformed immortalized-mammary epithelial cell line. Points are mean of triplicate experiments; bars, ±SD. Statistical significance was assessed by using an unpaired two-tailed Student's t test (P<0.05 was considered as significant) using GraphPad Prism5. Columns are mean of triplicate experiments; bars, ±SD. **P<0.001, *P<0.05.
# The human immortalized mammary epithelial cell lines, MCF10A, and MCF12A; and immortalized hepatocellular epithelial cell line, LO2 were obtained from the American Type Culture Collection (ATCC, Rockville, Md.) and were cultured as per ATCC propagation instructions. MC cell lines, MCF7, T47D, BT474, BT20, MDA-MB-361, MDA-MB-436, MDA-MB-468, and MDA-MB-231; endometrial carcinoma cell lines, Ishikawa, ECC1, RL95-2 and AN3; hepatocellular carcinoma cell lines, Hep3B, H2P, and H2M; colon carcinoma cell lines, DLD-1, and Caco-2; and prostate carcinoma cell lines, PC3, LNCaP, and DU145 were obtained from the American Type Culture Collection (ATCC, Rockville, Md.). Pancreatic carcinoma cell lines, AsPC-1 and BxPC-3; Lung carcinoma cell lines, HCC-827, NCI-H1975, HCC-4006, PC-14, and NCI-H1299; and Thyroid carcinoma cell lines HTH83, CAL62, T238, and OGK-M were obtained from Prof. H. Phillip Koeffler's laboratory at The Cancer Science Institute of Singapore, National University of Singapore (NUS). Gastric carcinoma cell lines, AGS, MKN-28, MKN-45, and A2-528 were obtained from Prof. Yoshiaki Ito's laboratory at The Cancer Science Institute of Singapore, NUS. All cell lines were cultured as per ATCC propagation instructions.
# The above synthesised compounds were initially evaluated against a range of carcinoma cells using an AlamarBlue™ cell viability assay (using the protocol discussed above). The tested compounds were generally efficacious at reducing the viability of various carcinoma cells compared to vehicle (DMSO) treated cells. Table 8 provides selected IC50 data for certain of the compounds synthesised herein against MCF-7.
# In table 9 IC50 values of compound 43 compound library in several cancer cell lines are tabulated, using an AlamarBlue® cell viability assay as previously described in Pandey V et al., Breast Cancer Res. 2014; 16(5):429. Statistical analysis was assessed by using GraphPad Prism5. Note: NV, no value.
row,Compound,IC50
1,COc1ccc2c3c(c(=O)oc2c1)C(c1ccc(-c2ccnc(F)c2C)cc1)C(C#N)=C(N)O3 (stereo not drawn) [Compound 150],1.12 µM
2,N#CC1=C(N)Oc2c(c(=O)oc3ccc(F)cc23)C1c1ccc(-c2cncnc2)cc1F (stereo not drawn) [Compound 168],251 µM
3,Cc1cc(-c2ccc(C3C(c4nnn[nH]4)=C(N)Oc4c3c(=O)oc3ccccc43)cc2)cnc1F (stereo not drawn) [Compound 113],33.1 µM
4,N#CC1=C(N)Oc2c(c(=O)oc3ccccc23)C1c1ccc(-c2ccncc2)cc1 (stereo not drawn) [Compound 121],15.8 µM
5,N#CC1=C(N)Oc2c(c(=O)oc3ccccc23)C1c1ccc(-c2ccc(C(F)(F)F)cc2)cc1 (stereo not drawn) [Compound 123],2.54 µM
6,COc1cccc(-c2ccc(C3C(C#N)=C(N)Oc4c3c(=O)oc3ccc(F)cc43)cc2)c1 (stereo not drawn) [Compound 164],27.3 µM
7,Cc1cc(-c2ccc(C3C(C#N)=C(N)Oc4c3c(=O)oc3ccccc43)c(F)c2)cnc1Cl (stereo not drawn) [Compound 132],1.21 µM
8,COc1cccc(-c2cc(C3C(C#N)=C(N)Oc4c3c(=O)oc3ccccc43)ccc2OC)c1 (stereo not drawn) [Compound 61],8.94 µM
9,Cc1c(-c2ccc(C3C(C#N)=C(N)Oc4c3c(=O)oc3ccc(F)cc43)cc2)ccnc1F (stereo not drawn) [Compound 149],43.3 µM
10,N#CC1=C(N)Oc2c(c(=O)oc3ccccc23)C1c1ccc(-c2ccc(Cl)cc2)cc1 (stereo not drawn) [Compound 127],3.25 µM
11,N#CC1=C(N)Oc2c(c(=O)oc3ccccc23)C1c1ccc(-c2ccccc2)cc1 (stereo not drawn) [Compound 1],22.6 µM
12,COc1ccc(C2C(C#N)=C(N)Oc3c2c(=O)oc2ccccc32)cc1-c1cccnc1 (stereo not drawn) [Compound 79],9.15 µM
13,COc1ccc(C2C(c3nnn[nH]3)=C(N)Oc3c2c(=O)oc2ccccc32)cc1-c1cnc(F)c(C)c1 (stereo not drawn) [Compound 114],39.8 µM
14,N#CC1=C(N)Oc2c(c(=O)oc3ccc(F)cc23)C1c1ccc(-c2cccnc2)cc1 (stereo not drawn) [Compound 144],6.85 µM
15,CC(=O)c1ccc(-c2ccc(C3C(C#N)=C(N)Oc4c3c(=O)oc3ccc(F)cc43)cc2)s1 (stereo not drawn) [Compound 158],95.2 µM
16,N#CC1=C(N)Oc2c(c(=O)oc3ccccc23)C1c1ccc(-c2ccncc2)cc1F (stereo not drawn) [Compound 131],2.89 µM
17,COc1cccc(-c2ccc(C3C(C#N)=C(N)Oc4c3c(=O)oc3ccccc43)cc2)c1 (stereo not drawn) [Compound 13],17.8 µM
18,COc1ccc(C2C(C#N)=C(NS(=O)(=O)c3ccccc3)Oc3c2c(=O)oc2ccccc32)cc1-c1cnc(F)c(C)c1 (stereo not drawn) [Compound 110],67.4 µM
19,Cc1c(-c2ccc(C3C(C#N)=C(N)Oc4c3c(=O)oc3ccccc43)c(F)c2)ccnc1F (stereo not drawn) [Compound 130],7.93 µM

row,Compound,IC50
1,Cc1ccc(-c2ccc(C3C(C#N)=C(N)Oc4c3c(=O)oc3ccccc43)cc2)cn1 (stereo not drawn) [Compound 124],43.8 µM
2,COc1ccc(CC(=O)NC2=C(C#N)C(c3ccc(OC)c(-c4cnc(F)c(C)c4)c3)c3c(c4ccccc4oc3=O)O2)cc1OC (stereo not drawn) [Compound 104],8.96 µM
3,COc1ccc2c3c(c(=O)oc2c1)C(c1ccc(-c2cnc(Cl)c(C)c2)cc1)C(C#N)=C(N)O3 (stereo not drawn) [Compound 148],7.38 µM
4,COc1ccc2c3c(c(=O)oc2c1)C(c1ccc(-c2ccc(C(F)(F)F)cc2)cc1)C(C#N)=C(N)O3 (stereo not drawn) [Compound 151],2.45 µM
5,COc1ccc(C2C(C#N)=C(NC(=O)c3cc(Cl)ccc3Cl)Oc3c2c(=O)oc2ccccc32)cc1-c1cnc(F)c(C)c1 (stereo not drawn) [Compound 105],23.7 µM
6,COc1ccc(C2C(C#N)=C(N)Oc3c2c(=O)oc2ccccc32)cc1-c1ccccc1C (stereo not drawn) [Compound 55],18.6 µM
7,COc1ccc2c3c(c(=O)oc2c1)C(c1ccc(-c2ccncc2)cc1)C(C#N)=C(N)O3 (stereo not drawn) [Compound 146],7.04 µM
8,COc1ccc2c3c(c(=O)oc2c1)C(c1ccc(-c2ccc(C)nc2)cc1)C(C#N)=C(N)O3 (stereo not drawn) [Compound 153],4.9 µM
9,Cc1ccc(-c2ccc(C3C(C#N)=C(N)Oc4c3c(=O)oc3ccccc43)c(F)c2)cn1 (stereo not drawn) [Compound 135],3.26 µM
10,N#CC1=C(N)Oc2c(c(=O)oc3ccccc23)C1c1ccc(-c2cccc3ccccc23)cc1 (stereo not drawn) [Compound 125],8.23 µM
11,Cc1ccccc1-c1ccc(C2C(C#N)=C(N)Oc3c2c(=O)oc2ccc(F)cc32)cc1 (stereo not drawn) [Compound 162],164 µM
12,Cc1cc(-c2ccc(C3C(C#N)=C(NC(=O)c4cccn4C)Oc4c3c(=O)oc3ccccc43)cc2)cnc1F (stereo not drawn) [Compound 101],40.4 µM
13,N#CC1=C(N)Oc2c(c(=O)oc3ccc(F)cc23)C1c1ccc(-c2ccc(Cl)cc2)cc1 (stereo not drawn) [Compound 155],36.1 µM
14,Cc1cc(-c2ccc(C3C(C#N)=C(NC(=O)Cc4cccc(Cl)c4)Oc4c3c(=O)oc3ccccc43)cc2)cnc1F (stereo not drawn) [Compound 98],58.3 µM
15,N#CC1=C(N)Oc2c(c(=O)oc3ccccc23)C1c1ccc(-c2cn[nH]c2)cc1F (stereo not drawn) [Compound 142],15.5 µM
16,N#CC1=C(N)Oc2c(c(=O)oc3ccccc23)C1c1ccc(-c2ccc(Cl)c(C(F)(F)F)c2)cc1 (stereo not drawn) [Compound 25],18.4 µM
17,COc1ccc(C2C(C#N)=C(N)Oc3c2c(=O)oc2ccccc32)cc1-c1ccc(Cl)c(C(F)(F)F)c1 (stereo not drawn) [Compound 73],14.8 µM
18,N#CC1=C(N)Oc2c(c(=O)oc3ccccc23)C1c1ccc(-c2cncnc2)cc1 (stereo not drawn) [Compound 128],200 µM
19,COc1ccc(C2C(C#N)=C(NS(=O)(=O)c3ccc([N+](=O)[O-])cc3)Oc3c2c(=O)oc2ccccc32)cc1-c1cnc(F)c(C)c1 (stereo not drawn) [Compound 112],101 µM

row,Compound,IC50
1,N#CC1=C(N)Oc2c(c(=O)oc3ccc(F)cc23)C1c1ccc(-c2cccc3ccccc23)cc1 (stereo not drawn) [Compound 156],24.8 µM
2,N#CC1=C(N)Oc2c(c(=O)oc3ccccc23)C1c1ccc(-c2cccnc2)cc1F (stereo not drawn) [Compound 133],3.26 µM
3,Cc1ccccc1-c1ccc(C2C(C#N)=C(N)Oc3c2c(=O)oc2ccccc32)c(F)c1 (stereo not drawn) [Compound 138],0.751 µM
4,N#CC1=C(N)Oc2c(c(=O)oc3ccccc23)C1c1ccc(-c2ccc(Cl)cc2)cc1F (stereo not drawn) [Compound 137],3.95 µM
5,N#CC1=C(N)Oc2c(c(=O)oc3ccccc23)C1c1ccc(-c2ccc(C(F)(F)F)cc2)cc1F (stereo not drawn) [Compound 134],1.84 µM
6,COc1ccc(S(=O)(=O)NC2=C(C#N)C(c3ccc(OC)c(-c4cnc(F)c(C)c4)c3)c3c(c4ccccc4oc3=O)O2)cc1 (stereo not drawn) [Compound 111],39.3 µM
7,Cc1cc(-c2ccc(C3C(C#N)=C(N)Oc4c3c(=O)oc3ccc(F)cc43)c(F)c2)cnc1Cl (stereo not drawn) [Compound 170],27.3 µM
8,Cc1ccc(-c2ccc(C3C(C#N)=C(N)Oc4c3c(=O)oc3ccc(F)cc43)cc2)cn1 (stereo not drawn) [Compound 152],77.6 µM
9,N#CC1=C(N)Oc2c(c(=O)oc3ccc(F)cc23)C1c1ccc(-c2cncnc2)cc1 (stereo not drawn) [Compound 160],253 µM
10,COc1ccc2c3c(c(=O)oc2c1)C(c1ccc(-c2ccccc2C)cc1)C(C#N)=C(N)O3 (stereo not drawn) [Compound 163],22.8 µM
11,N#CC1=C(N)Oc2c(c(=O)oc3ccc(F)cc23)C1c1ccc(-c2cccnc2)cc1F (stereo not drawn) [Compound 166],53.8 µM
12,N#CC1=C(N)Oc2c(c(=O)oc3ccccc23)C1c1ccc(-c2cn[nH]c2)cc1 (stereo not drawn) [Compound 129],263 µM
13,COc1ccc(C2C(C#N)=C(NC(=O)Cc3cccc(Cl)c3)Oc3c2c(=O)oc2ccccc32)cc1-c1cnc(F)c(C)c1 (stereo not drawn) [Compound 103],40 µM
14,N#CC1=C(N)Oc2c(c(=O)oc3ccc(F)cc23)C1c1ccc(-c2ccncc2)cc1 (stereo not drawn) [Compound 145],2.81 µM
15,COc1cccc(-c2ccc(C3C(C#N)=C(N)Oc4c3c(=O)oc3ccccc43)c(F)c2)c1 (stereo not drawn) [Compound 140],1.07 µM
16,N#CC1=C(N)Oc2c(c(=O)oc3ccccc23)C1c1ccc(-c2cccnc2)cc1 (stereo not drawn) [Compound 31],5.21 µM
17,COc1ccc(C2C(C#N)=C(NC(=O)c3cccn3C)Oc3c2c(=O)oc2ccccc32)cc1-c1cnc(F)c(C)c1 (stereo not drawn) [Compound 106],55 µM
18,N#CC1=C(N)Oc2c(c(=O)oc3ccccc23)C1c1ccc(-c2cccc3ccccc23)cc1F (stereo not drawn) [Compound 141],1.7 µM
19,Cc1cc(-c2ccc(C3C(C#N)=C(N)Oc4c3c(=O)oc3ccccc43)cc2)cnc1Cl (stereo not drawn) [Compound 122],73.9 µM
